The values that follow come from patent US6911443B2 (Bayer Aktiengesellschaft, priority 2000, dated 2005).

The target of one assay is T1, human Syk (GST-Syk) (Homo sapiens, UniProt P43405).
T1 construct: A cDNA fragment encoding human Syk openreading frame was cloned; made in house; host or cells: Sf21 insect cells (baculovirus, transfer vector pAcG2T)
The assay is described as follows: Syk tyrosine kinase inhibitory assay. It counts as biochemical. The note with it: Table 11; read-out: Activity grade. In outline:
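GST-tagged human Syk from baculovirus/Sf21, 0.65 nM final, with 3 μM biotinylated 30-residue activation-loop peptide and 30 μM ATP in Tris pH 8.0/MgCl2 buffer, 0.25% DMSO; 1 h at room temperature. Phosphopeptide captured on streptavidin, detected by europium-labelled anti-phosphotyrosine 4G10 time-resolved fluorescence.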
Consider `c1ccc(Nc2nc(-c3ccc4c(c3)OCO4)cc3nccn23)cc1` [Example 12-22], for which the IC50 was 500 to 2000 nM. With `COc1cc(-c2cc3nccn3c(Nc3cccc(S(C)(=O)=O)c3)n2)ccc1N1CCOCC1` [Example 12-60], the IC50 is less than 500 nM. Take `COc1cc(-c2cc3nccn3c(Nc3ccccc3)n2)ccc1NCCCN1CCCC1=O` [Example 12-40]: the IC50 is less than 500 nM. Take `COCCN(C)c1ccc(-c2cc3nccn3c(Nc3ccc(C(F)(F)F)cc3)n2)cc1OC` [Example 12-43]: the IC50 is less than 500 nM. Still for that read-out and setting: the figure for `COc1cc(-c2cc3nccn3c(Nc3ccccc3)n2)ccc1OCc1ccccc1` [Example 12-18] is 500 to 2000 nM; for `COc1ccc(-c2cc3nccn3c(Nc3ccccc3)n2)cc1[N+](=O)[O-]` [Example 12-32] it is less than 500 nM.

Staying with this assay, now noted: Table 13; read-out: Activity grade.
Turning to `COc1ccc(-c2cc3nccn3c(SCCC(C)C)n2)cc1OC` [Example 14-28], the IC50 was in the range of 500 to 2000 nM. On to `COc1ccc(-c2cc3nccn3c(SCc3cccs3)n2)cc1OC` [Example 14-31], for which the IC50 was less than 500 nM. Take `COc1ccc(-c2cc3nccn3c(SCc3ccc(F)cc3)n2)cc1OC` [Example 14-30]: the IC50 is 500 to 2000 nM. On the same count and under the same terms, the value for `COc1ccc(-c2cc3nccn3c(SCCN(C)C)n2)cc1OC` [Example 14-27] was less than 500 nM.

Staying with this assay, now noted: Table 14; read-out: Activity grade.
Take `COc1ccc(-c2cc3nccn3c(Sc3ccc(SCC(=O)O)cc3)n2)cc1OC` [Example 15-3]: the IC50 is less than 500 nM.

The assay is the same for the next values; noted with them: Table 15; read-out: Activity grade.
As to `COc1ccc(-c2cc3nccn3c(Sc3ccc(S(=O)(=O)N4CCCC4)cc3)n2)cc1OC` [Example 16-5], the IC50 was less than 500 nM.

The same assay, now with this note: Table 16; read-out: Activity grade.
As to `CCSc1nc(-c2ccc(NCCCN(C)C)c(OC)c2)cc2nccn12` [Example 17-13], the IC50 was less than 500 nM. On the same count and under the same terms, the figure for `CCSc1nc(-c2ccc(NCCCN3CCN(C)CC3)c(OC)c2)cc2nccn12` [Example 17-4] is less than 500 nM.

The same assay, now with this note: Table 17; IC50 classes; read-out: Activity grade.
Turning to `COc1ccc(-c2cc3nccn3c(Sc3ccc(CCC(N)=O)cc3)n2)cc1OC` [Example 20], the IC50 was less than 500 nM. Take `COc1ccc(-c2cc3nccn3c(Nc3ccccc3)n2)cc1NC(C)=O` [Example 3]: the IC50 is less than 500 nM.

`COc1ccc(-c2cc3nccn3c(Sc3ccc4c(c3)CCC(C(=O)O)C4)n2)cc1OC` (stereo not drawn) [Example 19]: the IC50 is less than 500 nM.

With `COc1ccc(-c2cc3nccn3c(Sc3ccc(CCC(=O)N(C)C)cc3)n2)cc1OC` [compound 17], the IC50 was less than 500 nM. On the same count and under the same terms, the figure for `COc1ccc(-c2cc3nccn3c(Nc3ccc(C(=O)NCCCO)cc3)n2)cc1OC` [Example 7] is less than 500 nM.

Staying with this assay, now noted: in vitro; compounds as yielded by solid phase synthesis, purity about 40 to 90%.
For `COc1ccc(-c2cc3nccn3c(N3CCN(c4ccc(Cl)c(Cl)c4)CC3)n2)cc1OC` [Example 9-42], the “Activity grade (IC50 class)” value is reported as “C-D”.

As to `COc1ccc(-c2cc3nccn3c(N3CCN(C4CCCCC4)CC3)n2)cc1OC` [Example 9-48], the “Activity grade (IC50 class)” value is given as “C-D”. `COc1ccc(-c2cc3nccn3c(N3CCN(c4ccc(C(F)(F)F)cn4)CC3)n2)cc1OC` [Example 9-50]: the “Activity grade (IC50 class)” value is recorded as “C-D”.

Staying with this assay, now noted: in vitro; compounds as yielded by solid phase synthesis, purity about 40 to 90%; read-out: Activity grade (IC50 class).
On to `CCCCOc1ccc(Nc2nc(-c3ccc(OC)c(OC)c3)cc3nccn23)cc1` [Example 11-94], for which the IC50 was in the range of 2000 to 10000 nM. The same measure, in the same setting: the figure for `COc1ccc(-c2cc3nccn3c(Sc3ccc(CCC(=O)O)cc3OC)n2)cc1OC` [Example 9-94] is less than 500 nM; for `COc1ccc(-c2cc3nccn3c(N3CCN(c4ccc(C)cc4)CC3)n2)cc1OC` [Example 9-44] it is 2000 to 10000 nM; for `CCSc1nc(-c2ccc(OC)c(OCC3CCCCO3)c2)cc2nccn12` (stereo not drawn) [Example 4-5] it is 500 to 2000 nM.

Take `CCSc1nc(-c2ccc3c(c2)OCCO3)cc2nccn12` [Example 1-13]: the IC50 lay within 500 to 2000 nM. For `COc1ccc(-c2cc3nccn3c(Nc3ccc4c(c3)CCC(C(=O)O)C4)n2)cc1OC` (stereo not drawn) [Example 11-5], the IC50 is less than 500 nM. For `COc1ccc(-c2cc3nccn3c(Nc3ccc(C(N)=O)cc3)n2)cc1OC` [Example 11-36], the IC50 is less than 500 nM. Take `COc1ccc(-c2cc3nccn3c(Sc3cccc(CC(O)O)c3)n2)cc1OC` [Example 13-20]: the IC50 was less than 500 nM.

As to `COc1ccc(-c2cc3nccn3c(N(C)C3CCN(C)C3)n2)cc1OC` (stereo not drawn) [Example 9-74], the IC50 fell in the range of 500 to 2000 nM.

Turning to `COc1ccc(-c2cc3nccn3c(Nc3cccc(CO)c3)n2)cc1OC` [Example 11-37], the IC50 was less than 500 nM. Still for that read-out and setting: the value for `COc1ccc(-c2cc3nccn3c(NCCN(C)C)n2)cc1OC` [Example 9-3] was 2000 to 10000 nM; that for `COc1ccc(-c2cc3nccn3c(Nc3ccc(I)cc3C(N)=O)n2)cc1OC` [Example 11-78] was less than 500 nM.

As to `COc1ccc(-c2cc3nccn3c(Sc3nc[nH]n3)n2)cc1OC` [Example 13-29], the IC50 was less than 500 nM. The same measure, in the same setting: the figure for `COc1ccc(-c2cc3nccn3c(Sc3nc4ccccc4s3)n2)cc1OC` [Example 13-11] is less than 500 nM; for `COc1ccc(Nc2nc(-c3ccc(OC)c(OC)c3)cc3nccn23)c(OC)c1` [Example 11-65] it is less than 500 nM. Regarding `COC(=O)CCSc1nc(-c2ccc(OC)c(OC)c2)cc2nccn12` [Example 9-90], the IC50 was less than 500 nM. The same measure, in the same setting: the figure for `COc1ccc(-c2cc3nccn3c(Nc3ccc(N)cc3)n2)cc1OC` [Example 11-62] is less than 500 nM; for `COc1ccc(-c2cc3nccn3c(Nc3ccc(CCCC(=O)O)cc3)n2)cc1OC` [Example 11-21] it is less than 500 nM. Still for that read-out and setting: the value for `CCSc1nc(-c2cccnc2)cc2nccn12` [Example 8-2] was 2000 to 10000 nM; that for `CCSc1nc(-c2ccc([N+](=O)[O-])c(OC)c2)cc2nccn12` [Example 8-8] was 2000 to 10000 nM; that for `COc1cc(-c2cc3nccn3c(Sc3ccc(CCC(=O)O)cc3)n2)ccc1OCCN1CCOCC1` [Example 13-28] was less than 500 nM. The same measure, in the same setting: the value for `CCOc1ccc(-c2cc3nccn3c(SCC)n2)cc1OC` [Example 3-1] was less than 500 nM; that for `COc1ccc(-c2cc3nccn3c(Nc3ccc(N4CCOCC4)cc3)n2)cc1OC` [Example 11-32] was less than 500 nM; that for `COc1ccc(-c2cc3nccn3c(SCc3ccccc3Cl)n2)cc1OC` [Example 9-27] was less than 500 nM. For `CCSc1nc(-c2ccc(OC)c(OS(C)(=O)=O)c2)cc2nccn12` [Example 4-9], the IC50 lay within 500 to 2000 nM.

For `COc1ccc(-c2cc3nccn3c(Nc3ccc4c(c3)n(C)c(=O)n4C)n2)cc1OC` [Example 11-117], the IC50 was less than 500 nM. The same measure, in the same setting: the value for `CCSc1nc(-c2ccc(O)c(OC)c2)cc2nccn12` [material for Example 3, 4-(5-Ethylsulfanyl-imidazo[1,2-c]pyrimidin-7-yl)-2-methoxyphenol] was less than 500 nM; that for `COc1ccc(-c2cc3nccn3c(N3CCC(=O)CC3)n2)cc1OC` [Example 9-58] was 500 to 2000 nM; that for `CCOc1ccc(-c2cc3nccn3c(SCC)n2)cc1OCC` [Example 6-1] was less than 500 nM. On to `CCSc1nc(-c2ccc(OS(C)(=O)=O)c(OC)c2)cc2nccn12` [Example 3-10], for which the IC50 fell in the range of 500 to 2000 nM.

Take `COc1ccc(-c2cc3nccn3c(Nc3ccc4c(c3)[nH]c(=O)n4C)n2)cc1OC` [Example 11-118]: the IC50 is less than 500 nM.

Take `COc1ccc(-c2cc3ncnn3c(Nc3ccc(CCCC(=O)O)cc3C(N)=O)n2)cc1OC` [Example 11-106]: the IC50 was less than 500 nM. Take `COc1ccc(-c2cc3nccn3c(Sc3ccccc3CO)n2)cc1OC` [Example 13-7]: the IC50 was less than 500 nM. On to `COc1ccc(-c2cc3nccn3c(Nc3ccc(CCN4C(=O)c5ccccc5C4=O)cc3)n2)cc1OC` [Example 9-26], for which the IC50 was 500 to 2000 nM. Still for that read-out and setting: the figure for `CCNc1nc(-c2ccc(OC)c(OC)c2)cc2nccn12` [Example 9-11] is less than 500 nM. On the same count and under the same terms, the value for `COc1cc(-c2cc3nccn3c(Sc3ccc(CCC(=O)O)cc3)n2)ccc1OCc1ccccc1` [Example 13-26] was less than 500 nM; that for `COC(=O)CCc1ccc(Nc2nc(-c3ccc(OC)c(OC)c3)cc3nccn23)cc1` [Example 9-24] was less than 500 nM.

Turning to `COc1ccc(-c2cc3nccn3c(Nc3cccc(C(=O)O)c3C)n2)cc1OC` [Example 11-51], the IC50 is 500 to 2000 nM.

As for `COc1ccc(-c2cc3nccn3c(Nc3ccc(Br)cc3Cl)n2)cc1OC` [Example 11-88], the IC50 was less than 500 nM. `COc1ccc(-c2cc3nccn3c(Nc3ccc(NCCCN4CCOCC4)cc3)n2)cc1OC` [Example 11-90]: the IC50 was less than 500 nM. As for `COc1ccc(-c2cc3nccn3c(Sc3ccc(N4CCN(C)CC4)cc3)n2)cc1OC` [Example 13-16], the IC50 was less than 500 nM. Take `COc1ccc(-c2cc3nccn3c(Nc3ccc(F)cc3C(=O)O)n2)cc1OC` [Example 11-41]: the IC50 is less than 500 nM. On the same count and under the same terms, the figure for `COc1ccc(-c2cc3nccn3c(N3CCCCC3)n2)cc1OC` [Example 9-54] is 500 to 2000 nM; for `COc1ccc(-c2cc3nccn3c(Nc3ccc(Br)cc3F)n2)cc1OC` [Example 11-87] it is less than 500 nM; for `COc1ccc(-c2cc3nccn3c(Sc3ccc(CCCC(=O)O)cc3)n2)cc1OC` [Example 13-21] it is 2000 to 10000 nM. In the case of `CCSc1nc(-c2ccc3cc(OC)ccc3c2)cc2nccn12` [Example 1-6], the IC50 lay within 2000 to 10000 nM. Still for that read-out and setting: the value for `COc1ccc(-c2cc3nccn3c(Nc3ccc4[nH]c(=O)[nH]c4c3)n2)cc1OC` [Example 11-89] was less than 500 nM; that for `COc1cc(-c2cc3nccn3c(Sc3ccc(CCC(=O)O)cc3)n2)ccc1O` [Example 13-27] was less than 500 nM; that for `COc1ccc(-c2cc3nccn3c(Nc3ccc(F)cc3)n2)cc1OC` [Example 11-60] was less than 500 nM. On to `COc1ccc(N(C)c2nc(-c3ccc(OC)c(OC)c3)cc3nccn23)cc1` [Example 11-49], for which the IC50 was in the range of 500 to 2000 nM.
